From patent US20080293712A1, “Benzo[C][2,7]Naphtyridine Derivatives, Methods of Making Thereof and Methods of Use Thereof” (WYETH, priority 2007, published 2008)
Each block holds one compound with its values, some of them ahead of it.

How the values were obtained:
Type in all cases: biochemical
[1] = target: T1, PDK-1 (Homo sapiens, UniProt O15530); assay: PDK-1 kinase inhibition ELISA assay (phosphorylation of His6-tagged SGK1 S422D by PDK-1); conditions: PDK-1 ELISA, Table 11; read-out: Average IC50
T1 sequence (O15530 1-556): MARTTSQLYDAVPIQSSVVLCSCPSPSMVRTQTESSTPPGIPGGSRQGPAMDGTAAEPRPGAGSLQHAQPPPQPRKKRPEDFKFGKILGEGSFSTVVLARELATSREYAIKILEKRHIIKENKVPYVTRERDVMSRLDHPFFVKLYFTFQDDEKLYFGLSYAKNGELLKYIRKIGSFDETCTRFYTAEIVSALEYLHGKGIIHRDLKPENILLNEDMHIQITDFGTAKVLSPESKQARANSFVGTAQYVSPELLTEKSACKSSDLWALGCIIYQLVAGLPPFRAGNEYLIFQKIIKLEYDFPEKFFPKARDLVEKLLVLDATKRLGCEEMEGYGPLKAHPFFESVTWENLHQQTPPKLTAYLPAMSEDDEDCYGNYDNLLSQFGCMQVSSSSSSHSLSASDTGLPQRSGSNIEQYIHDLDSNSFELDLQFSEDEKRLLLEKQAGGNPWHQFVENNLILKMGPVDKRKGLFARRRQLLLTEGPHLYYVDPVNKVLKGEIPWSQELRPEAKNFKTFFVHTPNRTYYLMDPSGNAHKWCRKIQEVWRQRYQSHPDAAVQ

[2] = target: S6K (Homo sapiens, UniProt P23443); assay: S6K kinase inhibition, Z'-LYTE FRET assay; conditions: 100 μM ATP
Text: (§1) The ability of illustrative Benzo[c][2,7]naphthyridine Derivatives to inhibit PKA, Akt1, S6K in vitro can be determined using a Fluorescence Resonance Energy Transfer (FRET) assay, such as a Z′-LYTE™ Kinase Assay Platform, commercially available from Invitrogen (c.f. Rodems et al., ASSAY Drug Devel. Technol. 1:9-19 (2002) and Zhang et al., J. Biomol. Screen. 4:67-73 (1999)). Z′-Lyte™ assay is an in vitro FRET-based assay that utilizes differential sensitivity of phosphorylated and non-phosphorylated peptides to proteolytic cleavage. The peptide substrate (also available from Invitrogen for each of PKA, Akt1 and S6K) is labeled with two different fluorophores, a fluorescence donor at one end of the peptide and a fluorescence acceptor at the other end of the peptide. In the primary kinase reaction, the kinase phosphorylates the peptide substrate in the presence of ATP. In the secondary reaction, a site-specific protease recognizes and cleaves non-phosphorylated peptides, but not phosphorylated peptides. Cleavage disrupts FRET between the donor and acceptor fluorophores on the peptide, whereas uncleaved phosphorylated peptides maintain FRET. Based on a formula that uses the ratio of donor emission (at 460 nm) to acceptor emission (at […]) after excitation of the donor fluorophore at 400 nm, the extent of phosphorylation of the peptide substrates is calculated. IC50 values of illustrative Benzo[c][2,7]naphthyridine Derivatives, shown in Table 12, are calculated using LSW Data Analysis package add-in for Excel (Microsoft).

[3] = target: PKA (Homo sapiens, UniProt P17612); assay: PKA kinase inhibition, Z'-LYTE FRET assay; conditions: 20 μM ATP
[4] = target: Akt1 (Homo sapiens, UniProt P31749); assay: Akt1 kinase inhibition, Z'-LYTE FRET assay; conditions: 100 μM ATP
Text: as §1

Chain of Akt1 (P31749 whole entry, species assumed): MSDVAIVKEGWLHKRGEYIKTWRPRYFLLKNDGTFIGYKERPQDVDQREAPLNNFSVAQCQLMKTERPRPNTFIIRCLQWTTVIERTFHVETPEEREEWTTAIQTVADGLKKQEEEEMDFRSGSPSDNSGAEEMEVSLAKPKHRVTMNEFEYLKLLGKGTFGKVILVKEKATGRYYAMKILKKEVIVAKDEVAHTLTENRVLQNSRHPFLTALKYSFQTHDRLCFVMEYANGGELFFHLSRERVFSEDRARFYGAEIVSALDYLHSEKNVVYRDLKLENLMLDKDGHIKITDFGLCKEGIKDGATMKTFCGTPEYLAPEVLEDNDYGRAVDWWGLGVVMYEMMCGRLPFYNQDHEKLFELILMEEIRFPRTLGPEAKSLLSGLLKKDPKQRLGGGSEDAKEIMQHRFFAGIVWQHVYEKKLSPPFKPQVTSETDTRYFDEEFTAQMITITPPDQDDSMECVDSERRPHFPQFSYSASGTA
Chain of S6K (P23443 whole entry): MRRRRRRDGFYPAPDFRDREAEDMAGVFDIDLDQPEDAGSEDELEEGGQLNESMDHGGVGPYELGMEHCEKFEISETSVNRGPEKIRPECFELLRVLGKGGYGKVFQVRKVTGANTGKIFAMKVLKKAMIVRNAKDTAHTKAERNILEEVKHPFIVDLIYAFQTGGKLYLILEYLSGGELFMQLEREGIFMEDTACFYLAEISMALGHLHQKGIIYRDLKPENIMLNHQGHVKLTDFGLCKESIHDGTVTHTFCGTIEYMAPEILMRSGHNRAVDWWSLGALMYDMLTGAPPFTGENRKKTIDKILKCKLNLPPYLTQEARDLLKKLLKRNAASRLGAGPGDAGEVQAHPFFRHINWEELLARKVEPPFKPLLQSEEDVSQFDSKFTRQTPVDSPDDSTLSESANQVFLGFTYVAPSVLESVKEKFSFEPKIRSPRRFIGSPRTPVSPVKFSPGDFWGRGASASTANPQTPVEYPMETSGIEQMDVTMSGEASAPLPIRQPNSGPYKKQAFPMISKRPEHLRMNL

SMILES: CCN1CCN(CCC#Cc2ccc3c(c2)ncc2c(N)nc(-n4ccnc4)cc23)CC1 [Ia-35, 8-[4-(4-ethylpiperazin-1-yl)but-1-yn-1-yl]-2-(1H-imidazol-1-yl)benzo[c]-2,7-naphthyridin-4-amine]
- IC50 [1]: 493 nM
- IC50 [3]: 6000 nM
- IC50 [4]: 2900 nM

SMILES: COc1cc2c(cc1OCCCN1CCCC1)ncc1c(N)nc(-c3cccnc3C)cc12 [Ia-9, 9-Methoxy-2-(2-methylpyridin-3-yl)-8-(3-pyrrolidin-1-ylpropoxy)benzo[c]-2,7-naphthyridin-4-amine]
- IC50 [1]: 2120 nM
- IC50 [3]: > 10000 nM
- IC50 [4]: 4000 nM

SMILES: COc1cc2c(cc1OCCCN1CCCC1)ncc1c(N)nc(-n3ccnc3)cc12 [Ia-15, 2-(1H-imidazol-1-yl)-9-methoxy-8-(3-(pyrrolidin-1-yl)propoxy)benzo[c][2,7]naphthyridin-4-amine]
- IC50 [1]: 498 nM
- IC50 [3]: > 10000 nM
- IC50 [4]: 380 nM

SMILES: CC(C)(C)OC(=O)N[C@H](COc1cncc(-c2cc3c(cnc4cc(Br)ccc43)c(N)n2)c1)Cc1ccccc1 [Ia-7, tert-butyl ((1S)-2-{[5-(4-amino-8-bromobenzo[c]-2,7-naphthyridin-2-yl)pyridin-3-yl]oxy}-1-benzylethyl)carbamate]
- IC50 [1]: > 5000 nM
- IC50 [3]: > 20000 nM
- IC50 [4]: > 20000 nM

SMILES: COc1cc2c(cc1OCCCN1CCN(C)CC1)ncc1c(N)nc(-n3ccnc3)cc12 [Ia-14, 2-(1H-imidazol-1-yl)-9-methoxy-8-(3-(4-methylpiperazin-1-yl)propoxy)benzo[c][2,7]naphthyridin-4-amine]
- IC50 [1]: 356 nM
- IC50 [3]: > 10000 nM
- IC50 [4]: 350 nM

SMILES: CCOc1cc2ncc3c(N)nc(-n4ccnc4)cc3c2cc1NC(C)=O [Ia-29, N-[4-amino-8-ethoxy-2-(1H-imidazol-1-yl)benzo[c]-2,7-naphthyridin-9-yl]acetamide]
- IC50 [1]: 385 nM
- IC50 [3]: > 5000 nM
- IC50 [4]: > 5000 nM

SMILES: COc1cc2ncc3c(N)nc(-n4cnc(CO)c4)cc3c2cc1OC [Ib-69, [1-(4-Amino-8,9-dimethoxybenzo[c]-2,7-naphthyridin-2-yl)-1H-imidazol-4-yl]methanol]
- IC50 [1]: 205 nM
- IC50 [3]: > 20000 nM
- IC50 [4]: 2800 nM

SMILES: CCOc1cc2ncc3c(N)nc(-n4ccnc4)cc3c2cc1NC(=O)Nc1ccc(N(C)C)cc1 [Ia-27, N-[4-amino-8-ethoxy-2-(1H-imidazol-1-yl)benzo[c]-2,7-naphthyridin-9-yl]-N′-[4-(dimethylamino)phenyl]urea]
- IC50 [1]: 617 nM
- IC50 [3]: > 20000 nM
- IC50 [4]: 16000 nM

SMILES: COc1cc2c(cc1OCC1CCN(C)CC1)ncc1c(N)nc(-c3cnccn3)cc12 [Ia-32]
- IC50 [1]: 754 nM
- IC50 [3]: > 20000 nM
- IC50 [4]: 250 nM

These reach a lower IC50 [1]. Values come first.

- IC50 [1]: 116 nM
- IC50 [3]: 1250 nM
- IC50 [4]: 230 nM
SMILES: CCN1CCN(CC/C=C/c2ccc3c(c2)ncc2c(N)nc(-n4ccnc4)cc23)CC1 [Ia-25, 8-[(1E)-4-(4-ethylpiperazin-1-yl)but-1-en-1-yl]-2-(1H-imidazol-1-yl)benzo[c]-2,7-naphthyridin-4-amine]

- IC50 [1]: 108 nM
- IC50 [3]: > 20000 nM
- IC50 [4]: 350 nM
SMILES: COCCOc1cc2ncc3c(N)nc(-n4cnc(C)c4)cc3c2cc1OC [Ia-42, 9-Methoxy-8-(2-methoxyethoxy)-2-(4-methyl-1H-imidazol-1-yl)benzo[c]-2,7-naphthyridin-4-amine]

- IC50 [1]: 8 nM
- IC50 [2]: 76 nM
SMILES: COc1cc2ncc3c(N)nc(-c4cncc(OC[C@@H](N)Cc5cccc(Cl)c5)c4)cc3c2cc1OC [Ib-29, 2-(5-{[(2S)-2-amino-3-(3-chlorophenyl)propyl]oxy}pyridin-3-yl)-8,9-dimethoxybenzo[c]-2,7-naphthyridin-4-amine]

- IC50 [1]: 6 nM
- IC50 [2]: 235 nM
SMILES: COc1cc2ncc3c(N)nc(-c4cncc(OC[C@H](C)N)c4)cc3c2cc1OC [Ib-31, 2-(5-{[(2S)-2-aminopropyl]oxy}pyridin-3-yl)-8,9-dimethoxybenzo[c]-2,7-naphthyridin-4-amine]
